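Tested at 5 concentrations; 48 h exposure; 96-well plates; endpoints linearly interpolated, else capped at highest concentration. TGI: concentration producing complete growth inhibition.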
How the values were obtained:
Test in all cases: DTP human tumour cell line panel, 48 h
SF-295 CNS = test system: SF-295 CNS
CCRF-CEM leukemia = test system: CCRF-CEM leukemia
T-47D breast = test system: T-47D breast
SNB-19 CNS = test system: SNB-19 CNS
OVCAR-8 ovarian = test system: OVCAR-8 ovarian
MDA-MB-231 breast = test system: MDA-MB-231 breast
NCI-H522 lung = test system: NCI-H522 lung
UACC-62 melanoma = test system: UACC-62 melanoma
U251 CNS = test system: U251 CNS
K-562 leukemia = test system: K-562 leukemia
HL-60(TB) leukemia = test system: HL-60(TB) leukemia
BT-549 breast = test system: BT-549 breast
SK-MEL-2 melanoma = test system: SK-MEL-2 melanoma
HOP-92 NSCLC = test system: HOP-92 NSCLC
SR leukemia = test system: SR leukemia
UACC-257 melanoma = test system: UACC-257 melanoma
UO-31 renal = test system: UO-31 renal
NCI/ADR-RES ovarian = test system: NCI/ADR-RES ovarian
SN12C renal = test system: SN12C renal
LOX IMVI melanoma = test system: LOX IMVI melanoma
RPMI-8226 leukemia = test system: RPMI-8226 leukemia
OVCAR-3 ovarian = test system: OVCAR-3 ovarian
HCT-15 colon = test system: HCT-15 colon
A498 renal = test system: A498 renal
M14 melanoma = test system: M14 melanoma
MOLT-4 leukemia = test system: MOLT-4 leukemia
ACHN renal = test system: ACHN renal
HCC-2998 colon = test system: HCC-2998 colon
COLO 205 colon = test system: COLO 205 colon
HT29 colon = test system: HT29 colon
SNB-75 CNS = test system: SNB-75 CNS
TK-10 renal = test system: TK-10 renal
A549 NSCLC = test system: A549 NSCLC
IGROV1 ovarian = test system: IGROV1 ovarian
MDA-MB-435 = test system: MDA-MB-435
KM12 colon = test system: KM12 colon
DU-145 prostate = test system: DU-145 prostate
OVCAR-5 ovarian = test system: OVCAR-5 ovarian
RXF 393 renal = test system: RXF 393 renal
HOP-62 NSCLC = test system: HOP-62 NSCLC
PC-3 prostate = test system: PC-3 prostate
CAKI-1 renal = test system: CAKI-1 renal
SK-MEL-5 melanoma = test system: SK-MEL-5 melanoma
HCT-116 colon = test system: HCT-116 colon
NCI-H23 lung = test system: NCI-H23 lung
786-0 renal = test system: 786-0 renal
MALME-3M melanoma = test system: MALME-3M melanoma
SK-MEL-28 melanoma = test system: SK-MEL-28 melanoma
SK-OV-3 ovarian = test system: SK-OV-3 ovarian
NCI-H460 lung = test system: NCI-H460 lung
SW-620 colon = test system: SW-620 colon
EKVX NSCLC = test system: EKVX NSCLC
OVCAR-4 ovarian = test system: OVCAR-4 ovarian
MCF7 breast = test system: MCF7 breast
MDA-N = test system: MDA-N

Measured: TGI

COc1ccc2c(C)cc(C)nc2n1
> 100 µM: SF-295 CNS | CCRF-CEM leukemia | T-47D breast | SNB-19 CNS | OVCAR-8 ovarian | MDA-MB-231 breast | NCI-H522 lung | UACC-62 melanoma | U251 CNS | K-562 leukemia | HL-60(TB) leukemia | BT-549 breast | SK-MEL-2 melanoma | HOP-92 NSCLC | SR leukemia | UACC-257 melanoma | UO-31 renal | NCI/ADR-RES ovarian | SN12C renal | LOX IMVI melanoma | RPMI-8226 leukemia | OVCAR-3 ovarian | HCT-15 colon | A498 renal | M14 melanoma | MOLT-4 leukemia | ACHN renal | HCC-2998 colon | COLO 205 colon | HT29 colon | SNB-75 CNS | TK-10 renal | A549 NSCLC | IGROV1 ovarian | MDA-MB-435 | KM12 colon | DU-145 prostate | OVCAR-5 ovarian | RXF 393 renal | HOP-62 NSCLC | PC-3 prostate | CAKI-1 renal | SK-MEL-5 melanoma | HCT-116 colon | NCI-H23 lung | 786-0 renal | MALME-3M melanoma | SK-MEL-28 melanoma | SK-OV-3 ovarian | NCI-H460 lung | SW-620 colon | EKVX NSCLC | OVCAR-4 ovarian | MCF7 breast | MDA-N

— PubChem BioAssay (NCI)
